Reference: US8722849B2, “Polypeptides” (Novo Nordisk A/S, priority 2011, dated 2014)
Read-outs that look alike come from different tables or passages of the source. Starred links: 1 amine or outer side, 2 acyl side, 3 side chain; linkers in the order of their positions; H or OH if unused. Positions of bridges follow the written chain, without caps; N, C: chain ends. Residues, ends and D or L forms follow the SMILES beside them. *: point of attachment. C20 diacid = O=C(O)CCCCCCCCCCCCCCCCCCC(=O)*; γGlu = O=C(O)[C@H](CCC(=O)[*:2])N[*:1]

Columns and labels:
[1] = target: T1, human calcitonin receptor (Homo sapiens, UniProt P30988); test: Assay (II)a functional CRE-luciferase assay, human calcitonin receptor; format: cell-based; settings: Table 11; read-out: CTa receptor human EC50
T1 construct: expressed in transfected cells; host or cells: BHK570
T1 sequence (P30988 25-474): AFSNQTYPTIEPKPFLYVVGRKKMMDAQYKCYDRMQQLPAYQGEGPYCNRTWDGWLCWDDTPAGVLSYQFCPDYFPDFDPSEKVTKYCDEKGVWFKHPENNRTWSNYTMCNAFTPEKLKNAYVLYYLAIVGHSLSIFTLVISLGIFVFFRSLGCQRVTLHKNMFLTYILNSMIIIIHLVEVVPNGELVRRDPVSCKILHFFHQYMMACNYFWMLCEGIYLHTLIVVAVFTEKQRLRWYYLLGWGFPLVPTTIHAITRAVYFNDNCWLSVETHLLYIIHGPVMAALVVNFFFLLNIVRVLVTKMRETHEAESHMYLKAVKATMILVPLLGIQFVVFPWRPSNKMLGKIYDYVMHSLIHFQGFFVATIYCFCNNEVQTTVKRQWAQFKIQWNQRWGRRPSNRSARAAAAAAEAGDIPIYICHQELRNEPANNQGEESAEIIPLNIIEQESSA

[2] = Assay (IV) determination of solubility; format: physicochemical
In short: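 Eight 100 mM buffers (glycylglycine pH 3.0–5.0, bistrispropane pH 6.0–8.0) each received an equal volume of polypeptide dissolved in water at ~500 nmol/ml. Soluble polypeptide was measured by HPLC following 18 hours at room temperature and centrifugation.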

[3] = target: T2, human amylin receptor (amylin 3(a) receptor: human calcitonin receptor + RAMP-3) (Homo sapiens, UniProt O60896+P30988); test: Assay (II)a functional CRE-luciferase assay, human amylin receptor; format: cell-based; settings: Table 2; BHK amylin 3(a)-receptor/CRE-luc cells
T2 construct: expressed in transfected cells; host or cells: BHK570
T2 sequence (P30988 25-474): T1 sequence (P30988 25-474)
T2 sequence (O60896 24-148 partner): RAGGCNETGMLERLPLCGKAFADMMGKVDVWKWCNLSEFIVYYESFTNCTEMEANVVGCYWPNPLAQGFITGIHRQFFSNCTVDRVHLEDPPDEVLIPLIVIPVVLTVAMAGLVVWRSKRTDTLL

[4] = Assay (III) ThT fibrillation assay for physical stability; format: physicochemical
In short: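 Freshly prepared formulations, pH-adjusted, with 1 μM ThT; four or eight replicates incubated at 37 °C under 960 rpm orbital shaking. Fluorescence (ex 444/em 485 nm) read every 20 min; […]. Peptide concentration measured by RP-HPLC before and after the run.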

[5] = bistrispropane buffer, pH 6, pH 6.0, read-out: Solubility pH 6.0
[6] = bistrispropane buffer, pH 6.5, pH 6.5, read-out: Solubility pH 6.5
[7] = bistrispropane buffer, pH 7, pH 7.0, 18 hours at room temperature, Table 3, read-out: Solubility pH 7.0
[8] = bistrispropane buffer, pH 7, pH 7.0, Table 8, read-out: Solubility pH 7.0
[9] = bistrispropane buffer, pH 7, pH 7.0, Table 9, read-out: Solubility pH 7.0
[10] = bistrispropane buffer, pH 7, pH 7.0, read-out: Solubility pH 7.0
[11] = bistrispropane buffer, pH 7.5, pH 7.5, Table 9, read-out: Solubility pH 7.5
[12] = bistrispropane buffer, pH 7.5, pH 7.5, read-out: Solubility pH 7.5
[13] = bistrispropane buffer, pH 8, pH 8.0, read-out: Solubility pH 8.0
[14] = glycylglycine buffer, pH 3, pH 3.0, read-out: Solubility pH 3.0
[15] = glycylglycine buffer, pH 4, pH 4.0, 18 hours at room temperature, Table 2, read-out: Solubility pH 4.0
[16] = glycylglycine buffer, pH 4, pH 4.0, read-out: Solubility pH 4.0
[17] = glycylglycine buffer, pH 5, pH 5.0, read-out: Solubility pH 5.0

Row | EC50 [1] [nM] | solubility at 18 h [2, 5] [µM] | solubility at 18 h [2, 6] [µM] | solubility at 18 h [2, 7] [µM] | solubility at 18 h [2, 8] [µM] | solubility at 18 h [2, 9] [µM] | solubility at 18 h [2, 10] [µM] | solubility at 18 h [2, 11] [µM] | solubility at 18 h [2, 12] [µM] | solubility at 18 h [2, 13] [µM] | solubility at 18 h [2, 14] [µM] | solubility at 18 h [2, 15] [µM] | solubility at 18 h [2, 16] [µM] | solubility at 18 h [2, 17] [µM] | EC50 [3] [nM] | ThT pH 4.0 lag time ([4]; Table 8) [h] | ThT pH 4.0 lag time ([4]; Table 9) [h] | ThT pH 4.0 lag time ([4]; ThT fibrillation assay) [h] | ThT pH 4.0 lag time (h) ([4]; ThT fibrillation assay) | Compound
1 | 2.19 | > 200 | > 200 | > 200 | > 200 | > 200 | > 200 | > 200 | > 200 | > 200 | > 200 | > 200 | > 200 | > 200 | 0.411 | >45 | >45 | >45 | >45 | CC[C@H](C)[C@H](NC(=O)[C@@H]1CCCN1C(=O)CNC(=O)[C@H](Cc1ccccc1)NC(=O)[C@H](CC(N)=O)NC(=O)[C@H](CCC(N)=O)NC(=O)[C@H](CO)NC(=O)[C@H](CO)NC(=O)[C@H](Cc1c[nH]cn1)NC(=O)[C@H](CCCNC(=N)N)NC(=O)[C@H](CC(C)C)NC(=O)[C@H](Cc1ccccc1)NC(=O)[C@H](CCC(=O)O)NC(=O)[C@H](C)NC(=O)[C@H](CC(C)C)NC(=O)[C@H](CCCNC(=N)N)NC(=O)[C@H](CCC(N)=O)NC(=O)[C@@H](NC(=O)[C@H](C)NC(=O)[C@@H]1CSSC[C@H](NC(=O)[C@H](CCC(=O)O)NC(=O)[C@H](CCCNC(=N)N)NC(=O)[C@H](CCC(=O)O)NC(=O)CC[C@H](NC(=O)CCCCCCCCCCCCCCCCCCC(=O)O)C(=O)O)C(=O)N[C@@H](CC(N)=O)C(=O)N[C@@H]([C@@H](C)O)C(=O)N[C@@H](C)C(=O)N[C@@H]([C@@H](C)O)C(=O)N1)[C@@H](C)O)C(=O)N[C@@H](CC(C)C)C(=O)N1CCC[C@H]1C(=O)N1CCC[C@H]1C(=O)N[C@H](C(=O)N[C@@H](CC(N)=O)C(=O)N[C@H](C(=O)NCC(=O)N[C@@H](CO)C(=O)N[C@@H](CCC(N)=O)C(=O)N[C@H](C(=O)N1CCC[C@H]1C(N)=O)[C@@H](C)O)C(C)C)[C@@H](C)O [Example 162, N-alpha-[(S)-4-Carboxy-4-(19-carboxynonadecanoylamino)butyryl]-Glu-Arg-[Glu1,Glu14,Arg17,Gln21,Gln35,Pro37]-pramlintide] ({C20 diacid-γGlu}-ERECNTATCATQRLAEFLRHSSQNFGPILPPTNVGSQTP-NH2; disulfide 4-9)
2 | 3.71 | > 200 | > 200 | > 200 | > 200 | > 200 | > 200 | > 200 | > 200 | > 200 | > 200 | > 200 | > 200 | > 200 | 1.06 | >45 | >45 | >45 | >45 | CC[C@H](C)[C@H](NC(=O)[C@@H]1CCCN1C(=O)CNC(=O)[C@H](Cc1ccccc1)NC(=O)[C@H](CC(N)=O)NC(=O)[C@H](CCC(N)=O)NC(=O)[C@H](CO)NC(=O)[C@H](CO)NC(=O)[C@H](Cc1c[nH]cn1)NC(=O)[C@H](CCCNC(=N)N)NC(=O)[C@H](CC(C)C)NC(=O)[C@H](Cc1ccccc1)NC(=O)[C@H](CCC(=O)O)NC(=O)[C@H](C)NC(=O)[C@H](CC(C)C)NC(=O)[C@H](CCCNC(=N)N)NC(=O)[C@H](CCC(N)=O)NC(=O)[C@@H](NC(=O)[C@H](C)NC(=O)[C@@H]1CSSC[C@H](NC(=O)[C@H](CCC(=O)O)NC(=O)[C@H](CCCNC(=N)N)NC(=O)[C@H](CCC(=O)O)NC(=O)CC[C@H](NC(=O)CCCCCCCCCCCCCCCCCCC(=O)O)C(=O)O)C(=O)N[C@@H](CC(N)=O)C(=O)N[C@@H]([C@@H](C)O)C(=O)N[C@@H](C)C(=O)N[C@@H]([C@@H](C)O)C(=O)N1)[C@@H](C)O)C(=O)N[C@@H](CC(C)C)C(=O)N1CCC[C@H]1C(=O)N1CCC[C@H]1C(=O)N[C@H](C(=O)N[C@@H](CCC(N)=O)C(=O)N[C@H](C(=O)NCC(=O)N[C@@H](CO)C(=O)N[C@@H](CCC(N)=O)C(=O)N[C@H](C(=O)N1CCC[C@H]1C(N)=O)[C@@H](C)O)C(C)C)[C@@H](C)O [Example 163, N-alpha-[(S)-4-Carboxy-4-(19-carboxynonadecanoylamino)butyryl]-Glu-Arg-[Glu1,Glu14,Arg17,Gln21,Gln31,Gln35,Pro37]-pramlintide] ({C20 diacid-γGlu}-ERECNTATCATQRLAEFLRHSSQNFGPILPPTQVGSQTP-NH2; disulfide 4-9)
3 | 3.57 | > 200 | > 200 | > 200 | > 200 | > 200 | > 200 | > 200 | > 200 | > 200 | > 200 | > 200 | > 200 | > 200 | 1.71 | >45 | >45 | >45 | >45 | CC[C@H](C)[C@H](NC(=O)[C@@H]1CCCN1C(=O)CNC(=O)[C@H](Cc1ccccc1)NC(=O)[C@H](CCC(N)=O)NC(=O)[C@H](CCC(N)=O)NC(=O)[C@H](CO)NC(=O)[C@H](CO)NC(=O)[C@H](Cc1c[nH]cn1)NC(=O)[C@H](CCCNC(=N)N)NC(=O)[C@H](CC(C)C)NC(=O)[C@H](Cc1ccccc1)NC(=O)[C@H](CCC(=O)O)NC(=O)[C@H](C)NC(=O)[C@H](CC(C)C)NC(=O)[C@H](CCCNC(=N)N)NC(=O)[C@H](CCC(N)=O)NC(=O)[C@@H](NC(=O)[C@H](C)NC(=O)[C@@H]1CSSC[C@H](NC(=O)[C@H](CCC(=O)O)NC(=O)[C@H](CCCNC(=N)N)NC(=O)[C@H](CCC(=O)O)NC(=O)CC[C@H](NC(=O)CCCCCCCCCCCCCCCCCCC(=O)O)C(=O)O)C(=O)N[C@@H](CC(N)=O)C(=O)N[C@@H]([C@@H](C)O)C(=O)N[C@@H](C)C(=O)N[C@@H]([C@@H](C)O)C(=O)N1)[C@@H](C)O)C(=O)N[C@@H](CC(C)C)C(=O)N1CCC[C@H]1C(=O)N1CCC[C@H]1C(=O)N[C@H](C(=O)N[C@@H](CCC(N)=O)C(=O)N[C@H](C(=O)NCC(=O)N[C@@H](CO)C(=O)N[C@@H](CCC(N)=O)C(=O)N[C@H](C(=O)N1CCC[C@H]1C(N)=O)[C@@H](C)O)C(C)C)[C@@H](C)O [Example 164, N-alpha-[(S)-4-Carboxy-4-(19-carboxynonadecanoylamino)butyryl]-Glu-Arg-[Glu1,Glu14,Arg17,Gln21,Gln22,Gln31,Gln35,Pro37]-pramlintide] ({C20 diacid-γGlu}-ERECNTATCATQRLAEFLRHSSQQFGPILPPTQVGSQTP-NH2; disulfide 4-9 (inferred))
